# pIC50: −log10 of the molar value. Several values for one entry are separate records, joined by “and”; a condition that tells them apart may be missing. Equal entries are not always repeated.
# Assays:
# [1] = target: T1, mineralocorticoid receptor (MR) (Homo sapiens, UniProt P08235); assay: Binding activity on human nuclear receptor MR; conditions: n = 4
# T1 sequence (P08235 1-984): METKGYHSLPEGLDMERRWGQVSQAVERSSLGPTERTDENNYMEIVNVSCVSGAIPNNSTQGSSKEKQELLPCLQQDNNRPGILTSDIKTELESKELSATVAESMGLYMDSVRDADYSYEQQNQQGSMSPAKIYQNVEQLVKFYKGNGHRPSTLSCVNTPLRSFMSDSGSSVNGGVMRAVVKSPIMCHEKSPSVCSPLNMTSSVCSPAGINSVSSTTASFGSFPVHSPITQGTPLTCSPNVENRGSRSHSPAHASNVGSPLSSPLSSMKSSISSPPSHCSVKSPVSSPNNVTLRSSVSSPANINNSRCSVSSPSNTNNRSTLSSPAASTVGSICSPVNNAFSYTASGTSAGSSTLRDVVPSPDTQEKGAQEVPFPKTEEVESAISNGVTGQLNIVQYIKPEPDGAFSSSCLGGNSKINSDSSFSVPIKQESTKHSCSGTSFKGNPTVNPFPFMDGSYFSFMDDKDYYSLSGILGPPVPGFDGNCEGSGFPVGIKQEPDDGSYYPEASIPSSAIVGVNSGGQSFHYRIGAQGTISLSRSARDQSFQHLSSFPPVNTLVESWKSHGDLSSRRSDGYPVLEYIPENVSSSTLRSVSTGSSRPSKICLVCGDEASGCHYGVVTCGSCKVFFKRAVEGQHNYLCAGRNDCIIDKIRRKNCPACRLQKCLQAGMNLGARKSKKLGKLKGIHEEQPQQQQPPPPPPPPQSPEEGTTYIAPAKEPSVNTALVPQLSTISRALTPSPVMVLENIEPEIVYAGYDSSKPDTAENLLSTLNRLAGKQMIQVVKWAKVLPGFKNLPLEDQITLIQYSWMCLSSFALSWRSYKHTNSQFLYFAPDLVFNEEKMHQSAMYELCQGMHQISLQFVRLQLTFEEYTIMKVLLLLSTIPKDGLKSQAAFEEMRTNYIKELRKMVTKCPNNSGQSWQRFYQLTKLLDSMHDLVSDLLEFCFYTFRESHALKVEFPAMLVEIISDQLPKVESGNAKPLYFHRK
# Experimental: Buffer solution is composed of 25 mM NaPO4, 20 mM NaMoO4, 10 mM KF and 10% glycerol (pH=7.3) and stored under 4° C. Stock solution is prepared with CHAPS and DTT and stored under −20° C. […] Add 2.5 μl/hole into 96-pore plate. Take out appropriate amount of buffer solution reserve into solution to make the final concentration of CHAPS and DDT to become 0.25 mM and 2 mM respectively. Add protease inhibitors (aprotinin and leupeptin) to make its final concentration to become 1 μg/μl, and place in an ice bath. After adding human nuclear receptor GR (1:8), PR (1:100), ER (1:2000), AR (1:200) and MR (1:40) into the reaction system respectively, adequately mix suitable quantity of [^3H]-dexamethasone, [^3H]-progesterone, [^3H]-estradiol and [^3H]-DHT (from Amersham), rapidly add into 96-pore plate (100 μl/pore) and incubate overnight under 4° C. On the next day, add 25 μl of hydroxyapatite suspension into each pore and mix with shaking. After incubating for 10 min, separate by centrifuge for 3 min at 2500 rpm. The precipitate is washed with 100 μl of buffer solution and separated by centrifuge twice. Add 150 μl of scintillation solution (from Perkin Elmer) into each pore, mix with shaking and count by MicroBeta counter.
# [2] = Cytotoxicity in MT-4 cell culture by MTT staining method; assay type: cell-based, human; conditions: human, MT-4 cells infected with HIV-1 IIIB; MT-4 cell culture, MTT staining; read-out: Cytotoxicity TC50, MTT
# Experimental: (§1) Set virus TCID50 determination group and cell control group. Each concentration is duplicated in two pore. Incubate under 37° C., 5% CO2 and saturated humidity in an incubator. Add MTT into each pore of cell culture plate pipetted supernatant liquid to stain, continue to incubate for 4 hours, add decolorizing liquid, determine OD value at 570 nm wavelength by enzyme-linked apparatus, and [NT]50 and TC0 as above. […] [formula]
# MT-4 cells = assay: as above; assay type: cell-based, human
# Experimental: as §1
# HIV-1 IIIB P24 antigen = assay: microbe, parasite or virus in culture; assay type: cell-based; conditions: for Selection index (SI): MT-4
# Experimental: (1) Inoculate MT4 cells into 96-pore cell culture plate, 1×10^5 cells/ml, infect with HIV-1-IIIB virus strain of about 100TCID50, and add cymipristone solution at the same time, its concentration is below 100 μg/ml, triply diluted to 8 concentrations. Set virus TCID50 determination group and cell control group. Each concentration is duplicated in two pore. Incubate under 37° C., 5% CO2 and saturated humidity in an incubator.
# Daily observe the cytopathy in above culture plate by microscope, record the degree of cytopathy with routine method, and calculate the 50% toxic concentration (TC50) and maximum nontoxic concentration (TC0) of drug according to Reed & Muench method. (3) Determination on HIV-1 P24 Antigen with Supernatant Liquid Pipetted from Cell Culture Plate Added Drug After 4 days (96 hours), pipette out the supernatant liquid from cell culture added drug and freeze HIV-1 P24 antigen used for determination.
# Take the supernatant liquid on the fourth day, combine the liquid from two pore, and dilute by 1:100, Determine the HIV-1 P24 antigen titer (OD value) by ELISA method according to the instruction of HIV-1 P24 antigen reagent kit. […] At the same time, determine the 50% infection concentration of HIV-1/IIIB virus strain in MT-4 cells and virus infection quantity (TCID50).
# (1) Calculation of TC50, IC50 and SI of Drug in Cell Culture According to Reed & Muench Method
# [3] = Human immunodeficiency virus 1, IIIB, MT4, read-out: Inhibition rate on HIV-1 P24 antigen
smiles,measurement,setting,value
"CC#C[C@]1(O)CC[C@H]2[C@@H]3CCC4=CC(=O)CCC4=C3[C@@H](c3ccc(N(C)C4CCCCC4)cc3)C[C@@]21C [Cymipristone, 11β-[4-(N-methyl-N-cyclohexylamino)phenyl]-17α-(1-propynyl)-17β-hydroxyl-4,9-estradiene-3-one]",pIC50,[1],< 5.70
same,CC50 at 96 h,[2],60.9 µM
same,"Cytotoxicity TC50, MTT","MT-4 cells; MT-4 cell culture, MTT staining",30.26 µg/mL
same,Toxicity on cultured human T-lymphocyte MT-4 (in words),MT-4 cells; conclusion,no significant toxicity
same,IC50,"HIV-1 IIIB P24 antigen; Human immunodeficiency virus 1, IIIB, MT4, read-out: IC50 on HIV-1 IIIB P24 antigen",1.3 µg/mL and 2.62 µM
same,inhibition at 0.05 µg/mL,HIV-1 IIIB P24 antigen; [3],14%
same,inhibition at 0.14 µg/mL,HIV-1 IIIB P24 antigen; [3],17%
same,inhibition at 0.41 µg/mL,HIV-1 IIIB P24 antigen; [3],13%
same,inhibition at 1.23 µg/mL,HIV-1 IIIB P24 antigen; [3],29%
same,inhibition at 3.7 µg/mL,HIV-1 IIIB P24 antigen; [3],93%
same,Selection index (SI),"HIV-1 IIIB P24 antigen; SI=TC50/IC50, CPE cytotoxicity",5.93
same,Selection index (SI),"HIV-1 IIIB P24 antigen; SI=TC50/IC50, MTT cytotoxicity",23.28
same,Effect on HIV-1 P24 antigen formation in MT-4 cell culture (in words),HIV-1 IIIB P24 antigen; conclusion,significant inhibitory effect
